# Laboratory results published in patent US11135234B2, “Effective aminoglycoside antibiotic for multidrug-resistant bacteria” (MICROBIAL CHEMISTRY RESEARCH FOUNDATION, priority 2015, dated 2021).
# Key:
# S. aureus RN4220 = test: MIC, agar plate dilution method, S. aureus RN4220; format: cell-based, Staphylococcus aureus; conditions: for minimal inhibitory concentration (MIC): S. aureus RN4220, Sensitive bacterium; for MIC: Staphylococcus aureus, RN4220, S. aureus RN4220, Sensitive bacterium, read-out: minimal inhibitory concentration (MIC)
# Procedure: (§1) As for the representative compounds of a new aminoglycoside antibiotic of the present invention described in Examples, the minimal inhibitory concentration (MIC, μg/mL) was measured for various assay strains of bacteria using an agar plate dilution method in accordance with the method described in the Japan Society of Chemotherapy.
# S. aureus RN4220/pMS520 = test: MIC, agar plate dilution method, S. aureus RN4220/pMS520; format: cell-based, Staphylococcus aureus; conditions: for minimal inhibitory concentration (MIC): S. aureus RN4220/pMS520, MRSA; for MIC: Staphylococcus aureus, MRSA, read-out: minimal inhibitory concentration (MIC), S. aureus RN4220/pMS520, MRSA
# Procedure: as §1
# S. aureus MF490 = test: MIC, agar plate dilution method, S. aureus MF490; format: cell-based, Staphylococcus aureus; conditions: for minimal inhibitory concentration (MIC): S. aureus MF490, MRSA; for MIC: Staphylococcus aureus, MRSA, read-out: minimal inhibitory concentration (MIC)
# Procedure: as §1
# E. faecium ATCC19434 = test: MIC, agar plate dilution method, E. faecium ATCC19434; format: cell-based, Enterococcus faecium; conditions: for minimal inhibitory concentration (MIC): E. faecium ATCC19434; for MIC: Enterococcus faecium, ATCC19434, E. faecium ATCC19434, read-out: minimal inhibitory concentration (MIC)
# Procedure: as §1
# E. coli JM109/pMW218 = test: MIC, agar plate dilution method, E. coli JM109/pMW218; format: cell-based, Escherichia coli; conditions: for minimal inhibitory concentration (MIC): E. coli JM109/pMW218, Sensitive bacterium; for MIC: Escherichia coli, JM109/PMW218, E. coli JM109/pMW218, Sensitive bacterium, read-out: minimal inhibitory concentration (MIC)
# Procedure: as §1
# [1] = system: K. pneumoniae ATCC BAA-1705; test: MIC, agar plate dilution method, K. pneumoniae ATCC BAA-1705; format: cell-based, Klebsiella pneumoniae; conditions: for minimal inhibitory concentration (MIC): K. pneumoniae ATCC BAA-1705, KPC-producing strain; for MIC: Klebsiella pneumoniae, ATCCBAA1705, K. pneumoniae ATCC BAA-1705, KPC-producing strain, read-out: minimal inhibitory concentration (MIC)
# Procedure: as §1
# [2] = system: K. pneumoniae ATCC BAA-2146; test: MIC, agar plate dilution method, K. pneumoniae ATCC BAA-2146; format: cell-based, Klebsiella pneumoniae; conditions: for minimal inhibitory concentration (MIC): K. pneumoniae ATCC BAA-2146, NDM-producing strain; for MIC: Klebsiella pneumoniae, ATCCBAA2146, K. pneumoniae ATCC BAA-2146, NDM-producing strain, read-out: minimal inhibitory concentration (MIC)
# Procedure: as §1
# [3] = system: A. baumannii ATCC BAA-1710; test: MIC, agar plate dilution method, A. baumannii ATCC BAA-1710; format: cell-based, Acinetobacter baumannii; conditions: for minimal inhibitory concentration (MIC): A. baumannii ATCC BAA-1710, MDRA; for MIC: Acinetobacter baumannii, ATCCBAA1710, A. baumannii ATCC BAA-1710, MDRA, read-out: minimal inhibitory concentration (MIC)
# Procedure: as §1
# S. marcescens TH-0447 = test: MIC, agar plate dilution method, S. marcescens TH-0447; format: cell-based, Serratia marcescens; conditions: for minimal inhibitory concentration (MIC): S. marcescens TH-0447, AMK-resistant; for MIC: Serratia marcescens, TH0447, S. marcescens TH-0447, AMK-resistant, read-out: minimal inhibitory concentration (MIC)
# Procedure: as §1
# S. marcescens GN6944 = test: MIC, agar plate dilution method, S. marcescens GN6944; format: cell-based, Serratia marcescens; conditions: S. marcescens GN6944, GM-resistant; for MIC: Serratia marcescens, read-out: minimal inhibitory concentration (MIC)
# Procedure: as §1
# P. aeruginosa PAO1 = test: MIC, agar plate dilution method, P. aeruginosa PAO1; format: cell-based, Pseudomonas aeruginosa; conditions: for minimal inhibitory concentration (MIC): P. aeruginosa PAO1, Sensitive bacterium; for MIC: Pseudomonas aeruginosa, PAO1, P. aeruginosa PAO1, Sensitive bacterium, read-out: minimal inhibitory concentration (MIC)
# Procedure: as §1
# P. aeruginosa PAO1/GN315 = test: MIC, agar plate dilution method, P. aeruginosa PAO1/GN315; format: cell-based, Pseudomonas aeruginosa; conditions: for minimal inhibitory concentration (MIC): P. aeruginosa PAO1/GN315, AMK-resistant; for MIC: Pseudomonas aeruginosa, read-out: minimal inhibitory concentration (MIC), P. aeruginosa PAO1/GN315, AMK-resistant
# Procedure: as §1
# P. aeruginosa MSC17707 = test: MIC, agar plate dilution method, P. aeruginosa MSC17707; format: cell-based, Pseudomonas aeruginosa; conditions: for minimal inhibitory concentration (MIC): P. aeruginosa MSC17707, AMK-resistant; for MIC: Pseudomonas aeruginosa, MSC17707, P. aeruginosa MSC17707, AMK-resistant, read-out: minimal inhibitory concentration (MIC)
# Procedure: as §1
# P. aeruginosa MSC01035 = test: MIC, agar plate dilution method, P. aeruginosa MSC01035; format: cell-based, Pseudomonas aeruginosa; conditions: P. aeruginosa MSC01035, ABK-resistant; for MIC: Pseudomonas aeruginosa, read-out: minimal inhibitory concentration (MIC)
# Procedure: as §1
SMILES,minimal inhibitory concentration (MIC) (S. aureus RN4220),minimal inhibitory concentration (MIC) (S. aureus RN4220/pMS520),minimal inhibitory concentration (MIC) (S. aureus MF490),minimal inhibitory concentration (MIC) (E. faecium ATCC19434),minimal inhibitory concentration (MIC) (E. coli JM109/pMW218),minimal inhibitory concentration (MIC) [1],minimal inhibitory concentration (MIC) [2],minimal inhibitory concentration (MIC) [3],minimal inhibitory concentration (MIC) (S. marcescens TH-0447),minimal inhibitory concentration (MIC) (S. marcescens GN6944),minimal inhibitory concentration (MIC) (P. aeruginosa PAO1),minimal inhibitory concentration (MIC) (P. aeruginosa PAO1/GN315),minimal inhibitory concentration (MIC) (P. aeruginosa MSC17707),minimal inhibitory concentration (MIC) (P. aeruginosa MSC01035),also measured
"CNC1C(O[C@H]2OC(CO)[C@@H](NC3CNC3)[C@H](O)C2O)O[C@H]2CC(N)[C@@H](O[C@@H]3C(N)C[C@@H](N)C(O)[C@H]3O)OC2C1O (stereo partly drawn) [Compound A4-h, 4″-N-(azetidin-3-yl)apramycin]",4 µg/mL,4 µg/mL,16 µg/mL,32 µg/mL,2 µg/mL,4 µg/mL,2 µg/mL,16 µg/mL,16 µg/mL,8 µg/mL,8 µg/mL,16 µg/mL,16 µg/mL,16 µg/mL,
"CNC1C(O[C@H]2OC(CO)[C@@H](NC3CN(C)C3)[C@H](O)C2O)O[C@H]2CC(N)[C@@H](O[C@@H]3C(N)C[C@@H](N)C(O)[C@H]3O)OC2C1O (stereo partly drawn) [Compound A4-i, 4″-N-(1-methylazetidin-3-yl)apramycin]",,,,,,,,,,,,,,,MIC (S. aureus RN4220): 4 µg/mL; MIC (S. aureus RN4220/pMS520): 4 µg/mL; MIC (S. aureus MF490): 16 µg/mL; MIC (E. faecium ATCC19434): 32 µg/mL; MIC (E. coli JM109/pMW218): 1 µg/mL; MIC [1]: 2 µg/mL; MIC [2]: 2 µg/mL; MIC [3]: 16 µg/mL; MIC (S. marcescens TH-0447): 16 µg/mL; MIC (S. marcescens GN6944): 8 µg/mL; MIC (P. aeruginosa PAO1): 8 µg/mL; MIC (P. aeruginosa PAO1/GN315): 16 µg/mL; MIC (P. aeruginosa MSC17707): 16 µg/mL; MIC (P. aeruginosa MSC01035): 16 µg/mL
"CNC1C(O[C@H]2OC(CO)[C@@H](NC(=N)N)[C@H](O)C2O)O[C@H]2CC(N)[C@@H](O[C@@H]3C(N)C[C@@H](N)C(O)[C@H]3O)OC2C1O (stereo partly drawn) [Compound A4-j, 4″-deamino-4″-guanidinoapramycin]",,,,,,,,,,,,,,,MIC (S. aureus RN4220): 2 µg/mL; MIC (S. aureus RN4220/pMS520): 2 µg/mL; MIC (S. aureus MF490): 8 µg/mL; MIC (E. faecium ATCC19434): 16 µg/mL; MIC (E. coli JM109/pMW218): 1 µg/mL; MIC [1]: 2 µg/mL; MIC [2]: 1 µg/mL; MIC [3]: 8 µg/mL; MIC (S. marcescens TH-0447): 8 µg/mL; MIC (S. marcescens GN6944): 4 µg/mL; MIC (P. aeruginosa PAO1): 4 µg/mL; MIC (P. aeruginosa PAO1/GN315): 8 µg/mL; MIC (P. aeruginosa MSC17707): 8 µg/mL; MIC (P. aeruginosa MSC01035): 8 µg/mL
"CNC1C(OC2OC(CO)C(NCCNC(=N)N)C(O)C2O)OC2CC(N)C(OC3C(N)CC(N)C(O)C3O)OC2C1O (stereo not drawn) [Compound A4-k, 4″-N-guanidinoethylapramycin]",2 µg/mL,2 µg/mL,16 µg/mL,16 µg/mL,0.5 µg/mL,1 µg/mL,1 µg/mL,8 µg/mL,8 µg/mL,4 µg/mL,8 µg/mL,8 µg/mL,16 µg/mL,16 µg/mL,
"CNC1C(OC2OC(CO)C(N)C(O)C2O)OC2CC(N)C(OC3C(N)CC(N)C(O)C3O)OC2C1O (stereo not drawn) [Compound B5, 5-epiapramycin]",4 µg/mL,2 µg/mL,8 µg/mL,16 µg/mL,1 µg/mL,1 µg/mL,1 µg/mL,8 µg/mL,8 µg/mL,8 µg/mL,4 µg/mL,4 µg/mL,4 µg/mL,4 µg/mL,
"CNC1C(OC2OC(CO)C(N)C(O)C2O)OC2CC(N)C(OC3C(N)CC(N)C(O)C3F)OC2C1O (stereo not drawn) [Compound B7, 5-deoxy-5-epi-5-fluoroapramycin]",4 µg/mL,4 µg/mL,16 µg/mL,32 µg/mL,1 µg/mL,2 µg/mL,2 µg/mL,8 µg/mL,16 µg/mL,8 µg/mL,4 µg/mL,8 µg/mL,8 µg/mL,8 µg/mL,
"CN[C@@H]1[C@@H](O[C@H]2O[C@H](CO)[C@@H](N)[C@H](O)[C@H]2O)O[C@H]2C[C@@H](N)[C@@H](O[C@@H]3[C@@H](N)C[C@@H](N)C[C@@H]3O)O[C@@H]2[C@@H]1O [Compound C6, 6-deoxy-5-epiapramycin]",4 µg/mL,4 µg/mL,8 µg/mL,16 µg/mL,1 µg/mL,2 µg/mL,1 µg/mL,8 µg/mL,8 µg/mL,4 µg/mL,4 µg/mL,4 µg/mL,8 µg/mL,8 µg/mL,
"CNC1C(OC2OC(CO)C(N)C(O)C2O)OC2CC(N)C(OC3C(N)CC(N)CC3F)OC2C1O (stereo not drawn) [Compound C8, 5,6-dideoxy-5-fluoroapramycin]",2 µg/mL,2 µg/mL,8 µg/mL,16 µg/mL,1 µg/mL,1 µg/mL,1 µg/mL,8 µg/mL,8 µg/mL,4 µg/mL,4 µg/mL,4 µg/mL,4 µg/mL,8 µg/mL,
"CNC1C(OC2OC(CO)C(N)C(O)C2O)OC2CC(N)C(OC3C(N)CC(N)CC3N)OC2C1O (stereo not drawn) [Compound C11, 5-amino-5,6-dideoxyapramycin]",8 µg/mL,8 µg/mL,16 µg/mL,32 µg/mL,2 µg/mL,4 µg/mL,4 µg/mL,16 µg/mL,16 µg/mL,16 µg/mL,16 µg/mL,16 µg/mL,16 µg/mL,32 µg/mL,
